The values below come from patent US8143403B2 (Bristol-Myers Squibb Company, priority 2008, dated 2012).

Bounds are passed on as bounds.

The target of this experiment is T1, Human CGRP Receptor (Homo sapiens, UniProt O60894+Q16602).
T1 construct: Crude membranes were prepared from SK-N-MC cells expressing CGRP receptors; endogenous in cells; host or cells: SK-N-MC cells (crude membranes)
T1 sequence (Q16602 23-461): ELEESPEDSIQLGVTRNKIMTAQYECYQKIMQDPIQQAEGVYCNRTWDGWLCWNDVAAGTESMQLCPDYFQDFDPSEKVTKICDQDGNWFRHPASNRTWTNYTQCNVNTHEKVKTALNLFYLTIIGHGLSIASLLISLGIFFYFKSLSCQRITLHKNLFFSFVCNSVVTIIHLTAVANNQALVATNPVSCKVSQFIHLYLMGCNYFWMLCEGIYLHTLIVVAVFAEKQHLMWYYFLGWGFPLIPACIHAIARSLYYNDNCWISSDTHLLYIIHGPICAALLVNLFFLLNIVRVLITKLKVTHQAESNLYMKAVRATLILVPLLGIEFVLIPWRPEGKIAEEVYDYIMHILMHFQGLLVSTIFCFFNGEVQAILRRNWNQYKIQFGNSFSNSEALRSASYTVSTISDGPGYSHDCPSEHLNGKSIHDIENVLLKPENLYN
T1 sequence (O60894 27-148): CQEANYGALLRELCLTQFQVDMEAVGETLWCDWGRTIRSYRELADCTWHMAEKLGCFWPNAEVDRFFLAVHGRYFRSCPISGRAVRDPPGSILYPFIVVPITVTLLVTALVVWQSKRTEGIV
Kind of experiment: Radioligand binding assay, [125I]-CGRP displacement on SK-N-MC membranes. To be noted: displacement of [125I]-CGRP (18 pM final), 2 h room temperature. The method, then: Tissue Culture. SK-N-MC cells were grown at 37° C. in 5% CO2 as a monolayer in medium consisting of MEM with Earle's salts and L-glutamine (Invitrogen) supplemented with 10% fetal bovine serum (Invitrogen).
Membrane Preparation. Crude membranes were prepared from SK-N-MC cells expressing CGRP receptors. The cells were rinsed twice with phosphate-buffered saline (155 mM NaCl, 3.3 mM Na2HPO4, 1.1 mM KH2PO4, pH 7.4), and incubated for 5-10 min. at 4° C. in hypotonic lysis buffer consisting of 10 mM Tris (pH 7.4) and 5 mM EDTA. The cells were transferred from plates to polypropylene tubes (16×100 mm) and homogenized using a polytron. Homogenates were centrifuged at 32,000×g for 30 min. The pellets were resuspended in cold hypotonic lysis buffer with 0.1% mammalian protease inhibitor cocktail (Sigma) and assayed for protein concentration. The SK-N-MC homogenate was aliquoted and stored at −80° C. Radioligand Binding Assay. The compounds of invention were solubilized and carried through serial dilutions using 100% DMSO. Aliquots from the compound serial dilutions were further diluted 25 fold into assay buffer (50 mM Tris-Cl pH 7.5, 5 mM MgCl2, 0.005% Triton X-100) and transferred (volume 50 μl) into 96 well assay plates. [^125I]-CGRP (GE Healthcare or Perkin-Elmer) was diluted to 72 pM in assay buffer and a volume of 50 μl was added to each well. SK-N-MC membranes were thawed, diluted in assay buffer with fresh 0.1% mammalian protease inhibitor cocktail (Sigma), and re-homogenized. SK-N-MC homogenate (7 μg/well) was added in a volume of 100 μl. The assay plates were then incubated at room temperature for 2 h. Assays were stopped by addition of excess cold wash buffer (50 mM Tris-Cl pH 7.5, 0.1% BSA) immediately followed by filtration over glass fiber filters (Whatman GF/B) previously soaked in 0.5% PEI. Non-specific binding was defined with 1 μM beta-CGRP (Bachem). Protein bound radioactivity was determined using a gamma or scintillation counter. The resulting data was analyzed using a four parameter competitive binding equation (XLfit v2.0) and the IC50 was defined as the concentration of a compound of invention required to displace 50% of radioligand binding. Final assay concentration of [^125I]-CGRP was 18 pM. […] All compounds of invention were evaluated in at least two separate experiments.
A general note: In a radioligand displacement assay an active substance lowers the binding of a labelled ligand.
In the case of `O=C(O[C@@H]1CC[C@@H](c2cc(F)ccc2F)Cc2cccnc21)N1CCC(n2c(=O)[nH]c3ncccc32)CC1` (racemic) [Example 11, (6,9-trans)-6-(2,5-Difluorophenyl)-6,7,8,9-tetrahydro-5H-cyclohepta[b]pyridin-9-yl 4-(2-oxo-2,3-dihydro-1H-imidazo[4,5-b]pyridin-1-yl)piperidine-1-carboxylate], the IC50 (usually the concentration needed to halve the response being measured) is 4.14 nM. That is a single-digit nanomolar value.

Molecule `O=C(O[C@@H]1CC[C@@H](c2cccc(F)c2F)Cc2cccnc21)N1CCC(n2c(=O)[nH]c3ncccc32)CC1` (relative stereo) [Example 2] had an IC50 of 0.23 nM.

In the case of `O=C(O[C@@H]1CC[C@@H](c2cccc(F)c2F)Cc2cccnc21)N1CCC(N2CCc3ccccc3NC2=O)CC1` (relative stereo) [Example 3, (6,9-anti)-6-(2,3-difluorophenyl)-6,7,8,9-tetrahydro-5H-cyclohepta[b]pyridin-9-yl 4-(2-oxo-4,5-dihydro-1H-benzo[d][1,3]diazepin-3(2H)-yl)piperidine-1-carboxylate], the IC50 stood at 1.25 nM.

Consider `N#Cc1ccc2c(n1)[C@H](OC(=O)N1CCC(n3c(=O)[nH]c4ncccc43)CC1)CC[C@@H](c1cccc(F)c1F)C2` (relative stereo) [Example 4, (6,9-trans)-2-cyano-6-(2,3-difluorophenyl)-6,7,8,9-tetrahydro-5H-cyclohepta[b]pyridin-9-yl 4-(2-oxo-2,3-dihydro-1H-imidazo[4,5-b]pyridin-1-yl)piperidine-1-carboxylate], for which the IC50 worked out at 0.44 nM.

On to `O=C(C[C@@H]1CC[C@H](c2cccc(F)c2F)Cc2cccnc21)N1CCC(n2c(=O)[nH]c3ncccc32)CC1` (relative stereo) [Example 5, 1-(1-(2-((6,9-Cis)-6-(2,3-difluorophenyl)-6,7,8,9-tetrahydro-5H-cyclohepta[b]pyridin-9-yl)acetyl)piperidin-4-yl)-1H-imidazo[4,5-b]pyridin-2(3H)-one], for which the 50% inhibitory concentration (IC50) came out at 4.04 nM. Against the preceding molecule, the IC50 is about 9.2-fold higher.

`O=C(O[C@@H]1CC[C@@H](c2ccccc2)Cc2cccnc21)N1CCC(n2c(=O)[nH]c3ncccc32)CC1` (relative stereo) [Example 10, (6,9-Trans)-6-Phenyl-6,7,8,9-tetrahydro-5H-cyclohepta[b]pyridin-9-yl 4-(2-oxo-2,3-dihydro-1H-imidazo[4,5-b]pyridin-1-yl)piperidine-1-carboxylate] had an IC50 of 8.89 nM.

`O=C(O[C@@H]1CC[C@@H](c2ccc(F)c(F)c2)Cc2cccnc21)N1CCC(n2c(=O)[nH]c3ncccc32)CC1` (relative stereo) [Example 12, (6,9-Trans)-6-(3,4-Difluorophenyl)-6,7,8,9-tetrahydro-5H-cyclohepta[b]pyridin-9-yl 4-(2-oxo-2,3-dihydro-1H-imidazo[4,5-b]pyridin-1-yl)piperidine-1-carboxylate] returned an IC50 of 7.41 nM.

As for `O=C(C[C@@H]1CC[C@@H](c2cccc(F)c2F)Cc2cccnc21)N1CCC(n2c(=O)[nH]c3ncccc32)CC1` (single isomer, unassigned) [Example 6], the IC50 was 0.89 nM.

`O=C(C[C@H]1CC[C@H](c2cccc(F)c2F)Cc2cccnc21)N1CCC(n2c(=O)[nH]c3ncccc32)CC1` (single isomer, unassigned) [Example 7] gave an IC50 of over 100 nM.

On to `O=C(N[C@@H]1CC[C@@H](c2cccc(F)c2F)Cc2cccnc21)N1CCC(n2c(=O)[nH]c3ncccc32)CC1` (single isomer, unassigned) [Example 8], for which the concentration for half-maximal inhibition (IC50) was found to be 1.6 nM.

`O=C1CCC(c2cccc(F)c2F)CCC1OC(=O)N1CCC(n2c(=O)[nH]c3ncccc32)CC1` (centres unmarked) [Example 1, 5-(2,3-difluorophenyl)-2-oxocycloheptyl 4-(2-oxo-2,3-dihydro-1H-imidazo[4,5-b]pyridin-1-yl)piperidine-1-carboxylate]: the 50% inhibitory concentration (IC50) was 2.86 nM.

Regarding `O=C(N[C@H]1CC[C@H](c2cccc(F)c2F)Cc2cccnc21)N1CCC(n2c(=O)[nH]c3ncccc32)CC1` [Example 9, N-((6S,9S)-6-(2,3-difluorophenyl)-6,7,8,9-tetrahydro-5H-cyclohepta[b]pyridin-9-yl)-4-(2-oxo-2,3-dihydro-1H-imidazo[4,5-b]pyridin-1-yl)piperidine-1-carboxamide], the IC50 was over 1000 nM.

Molecule `Nc1cnc2c(c1)C[C@H](c1cccc(F)c1F)CC[C@H]2NC(=O)N1CCC(n2c(=O)[nH]c3ncccc32)CC1` [Example 14, N-((6R,9R)-3-amino-6-(2,3-difluorophenyl)-6,7,8,9-tetrahydro-5H-cyclohepta[b]pyridin-9-yl)-4-(2-oxo-2,3-dihydro-1H-imidazo[4,5-b]pyridin-1-yl)piperidine-1-carboxamide] returned an IC50 of 0.25 nM. This lies in the sub-nanomolar range.

Regarding `CN(C)c1cnc2c(c1)C[C@H](c1cccc(F)c1F)CC[C@H]2OC(=O)N1CCC(n2c(=O)[nH]c3ncccc32)CC1` [Example 15, (6R,9R)-6-(2,3-difluorophenyl)-3-(dimethylamino)-6,7,8,9-tetrahydro-5H-cyclohepta[b]pyridin-9-yl 4-(2-oxo-2,3-dihydro-1H-imidazo[4,5-b]pyridin-1-yl)piperidine-1-carboxylate], the IC50 is 0.98 nM. This IC50 lies about 3.9-fold higher than the previous one.

For `CC(C)(C)Nc1ccc2c(n1)[C@H](OC(=O)N1CCC(n3c(=O)[nH]c4ncccc43)CC1)CC[C@@H](c1cccc(F)c1F)C2` [Example 16, (6R,9R)-2-(tert-Butylamino)-6-(2,3-difluorophenyl)-6,7,8,9-tetrahydro-5H-cyclohepta[b]pyridin-9-yl 4-(2-oxo-2,3-dihydro-1H-imidazo[4,5-b]pyridin-1-yl)piperidine-1-carboxylate], the IC50 worked out at 6.96 nM. Against the preceding molecule, the IC50 is about 7.1-fold higher.

`Nc1ccc2c(n1)[C@H](OC(=O)N1CCC(n3c(=O)[nH]c4ncccc43)CC1)CC[C@@H](c1cccc(F)c1F)C2` [Example 17, (6R,9R)-2-Amino-6-(2,3-difluorophenyl)-6,7,8,9-tetrahydro-5H-cyclohepta[b]pyridin-9-yl 4-(2-oxo-2,3-dihydro-1H-imidazo[4,5-b]pyridin-1-yl)piperidine-1-carboxylate] registered an IC50 of 0.8 nM.

With `CN(C)c1ccc2c(n1)[C@H](OC(=O)N1CCC(n3c(=O)[nH]c4ncccc43)CC1)CC[C@@H](c1cccc(F)c1F)C2` [Example 18, (6R,9R)-6-(2,3-difluorophenyl)-2-(dimethylamino)-6,7,8,9-tetrahydro-5H-cyclohepta[b]pyridin-9-yl 4-(2-oxo-2,3-dihydro-1H-imidazo[4,5-b]pyridin-1-yl)piperidine-1-carboxylate], the IC50 was found to be 0.78 nM.

`O=C(O[C@@H]1CC[C@@H](c2cccc(F)c2F)Cc2ccc(Cl)nc21)N1CCC(n2c(=O)[nH]c3ncccc32)CC1` [Example 19, (6R,9R)-2-Chloro-6-(2,3-difluorophenyl)-6,7,8,9-tetrahydro-5H-cyclohepta[b]pyridin-9-yl 4-(2-oxo-2,3-dihydro-1H-imidazo[4,5-b]pyridin-1-yl)piperidine-1-carboxylate]: the IC50 is 0.76 nM. This IC50 and that of the molecule before are within 1.5-fold of each other.

In turn, `O=C(O[C@@H]1CC[C@@H](c2cccc(F)c2F)Cc2cccnc21)N1CCC(n2c(=O)[nH]c3ncccc32)CC1` [Example 21] had an IC50 of 0.12 nM. Compared with the last molecule, the IC50 is about 6.3-fold lower.

“(6,9-Trans)-6-(2,3-difluorophenyl)-6,7,8,9-tetrahydro-5H-cyclohepta[b]pyridin-9-yl 2-oxo-1,2-dihydrospiro[benzo[d][1,3]oxazine-4,4′-piperidine]-1′-carboxylate [Example 13]”: the IC50 turned out to be 1.55 nM.
